Laboratory results published in PubChem BioAssay (NCI).
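Briefly, cells in 96-well plates were exposed to five compound concentrations for 48 h, and endpoints were estimated by linear interpolation. GI50 is the concentration that inhibits growth by half. The concentration for full growth arrest is given as TGI.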

Legend:
Experiment in all cases: inhibition of tumour cell growth, NCI panel, 48 h
[1] = system: A549 NSCLC
[2] = system: HCT-15 colon
[3] = system: HT29 colon
[4] = system: LOX IMVI melanoma
[5] = system: SF-295 CNS
[6] = system: SNB-19 CNS
[7] = system: SNB-75 CNS
[8] = system: SR leukemia
[9] = system: UACC-257 melanoma
[10] = system: BT-549 breast

Compound	TGI [1]	TGI [2]	TGI [3]	TGI [4]	TGI [5]	TGI [6]	TGI [7]	TGI [8]	TGI [9]	GI50 [1]	GI50 [10]	TGI [10]	GI50 [2]	GI50 [7]	GI50 [4]	GI50 [5]	GI50 [6]	GI50 [8]	GI50 [9]	GI50 [3]
CC1(CO)OC1COCc1ccccc1 (configuration not stated)	> 100 µM	> 100 µM	> 100 µM	> 100 µM	> 100 µM	> 100 µM	> 100 µM	> 100 µM	> 100 µM											
COc1ccc2c([nH]c3cc(O)c(C)cc32)c1C=O	> 25 µM	> 25 µM	> 25 µM	> 25 µM		> 25 µM		> 25 µM												
CN(NC(=O)CC(=O)NN(C)C(=S)c1ccccc1)C(=S)c1ccccc1	> 100 µM	> 100 µM	> 100 µM	> 100 µM	> 100 µM	> 100 µM	> 100 µM	> 100 µM		16.7 µM	88.7 µM	> 100 µM	32.1 µM	> 54.6 µM						
Cc1ncc([N+](=O)[O-])n1CCNS(=O)(=O)CCCn1ccnc1[N+](=O)[O-]	> 100 µM	> 100 µM	> 100 µM	> 100 µM	> 100 µM		> 100 µM	> 100 µM	> 100 µM			> 100 µM								
C[C@@H]1O[C@@H](O[C@@H]2[C@@H](O)[C@H](OCCc3ccc(O)c(O)c3)O[C@H](COC(=O)/C=C/c3ccc(O)c(O)c3)[C@H]2O)[C@H](O)[C@H](O)[C@H]1O	> 100 µM	> 100 µM		34.4 µM	> 100 µM	> 100 µM	> 100 µM	> 100 µM	> 100 µM	> 100 µM	12.8 µM	30 µM	> 100 µM	> 100 µM	18.3 µM	> 100 µM	> 100 µM	41.3 µM	62.9 µM	
CC(C)=CC(=O)Oc1ccc([N+](=O)[O-])cc1	> 100 µM	> 100 µM	> 100 µM		> 100 µM	> 100 µM	> 100 µM	> 100 µM	> 100 µM											
C=C1C(=O)O[C@@H]2C1C[C@@H](O)/C(C)=C/C/C=C(\C)CCC[C@H](C)[C@H]2OC(C)=O (some centres not stated)	> 100 µM	51.9 µM	> 100 µM	47.2 µM	> 100 µM	> 100 µM	> 100 µM		> 100 µM	35.8 µM	20 µM	39.1 µM	22.2 µM	38.6 µM	21.9 µM	> 100 µM	61 µM		36.4 µM	40 µM
C/C=C(\C)C(=O)N[C@H]1[C@@H](OC(C)=O)C[C@]2(C)C3CC[C@@]4(C)C(CC[C@@H]4C(C)N(C)C)C3CCC2[C@H]1O (some centres not stated)	20.3 µM	4.22 µM	6.55 µM	4.02 µM	14.9 µM	28.9 µM	20.8 µM		5.16 µM	5.41 µM	4.81 µM	21.6 µM	1.46 µM	5.86 µM	1.78 µM	3.44 µM	13.6 µM		1.98 µM	0.738 µM
COc1ccc(C(=O)C(c2ccc(OC)cc2)C2(O)C(=O)Nc3c(C)cc(Cl)cc32)cc1 (configuration not stated)	> 100 µM	> 100 µM	> 100 µM		> 100 µM	> 100 µM	> 100 µM	48.2 µM	> 100 µM											
